Test results reported in publication PMC2225439, “Amyloid as a Depot for the Formulation of Long-Acting Drugs” (PLoS Biology, 2008).

Columns and labels:
[1] = Thio T binding (amyloid fibril formation); assay type: physicochemical; set-up: key to Thio T Binding: b, binding; n, not binding; conditions: 1 mg/ml in 5% D-mannitol, 0.01% sodium azide
Procedure: The kinetics of fibril formation in vitro is generally a slow process over several days or weeks, and can be monitored by the increase of fluorescence intensity of the cross-β-sheet–sensitive dye, Thio T [15]. Thio T fluorescence is thereby insignificant during the initial incubation period of amyloid aggregation due to the nonexistence of Thio T–sensitive β-sheet aggregates. After the initial phase, a time-dependent increase of fluorescence intensity is observed until a maximum intensity is reached, at which time maximal fibril formation has occurred. […] For the Thio T binding studies, all GnRH analogs were incubated at room temperature at a concentration of 1 mg/ml in 5% D-mannitol, conditions identical to the formulation used in the animal experiments. In addition, 0.01% sodium azide was added. The Thio T fluorescence was monitored daily for all analogs over a period of 21 d (Figure 1).
(§1) GnRH analogs were dissolved in a glass tube in 1 ml of 5% D-mannitol and 0.01% sodium azide at a concentration of 1 mg/ml. The GnRH analogs were then incubated at room temperature without stirring. The fibril formation was monitored by EM, CR, and time-resolved by Thio T binding studies. Three independent experiments were performed for each sample.
A 10-μl aliquot of peptide sample was diluted into 500 μl of water with 5% D-mannitol containing 0.01% (w/v) sodium azide. The solution was mixed with 10 μl of 1 mM Thio T prepared in the same solution. Fluorescence was measured immediately after addition of Thio T. The experiment was measured on a spectrofluorimeter (Photon Technology International) with excitation at 450 nm and emission at 482 nm. The fluorescence intensity at 482 nm was plotted against incubation time (day). A rectangular 10-mm quartz microcuvette was used. Three independent experiments were performed for each sample.

[2] = Electron microscopy of negative-stained samples; assay type: physicochemical; set-up: key to EM^8 / EM^30: fib, fibrils; nfib, no fibrils; conditions: 1 mg/ml in 5% D-mannitol, room temperature, at least two independent experiments
Procedure: To formally determine the formation of amyloid fibrils by GnRH analogs and to characterize other possible assemblies present in the sample, EM was done on all of the GnRH analogs. Since the EM analysis is for a qualitative interpretation only, amyloid fibrils and other small aggregates might be observed under the electron microscope even if only a minority of the sample forms fibrils. Samples were studied after 8 and 30 d of incubation. […] The fibrils show a wide variety of morphologies, comprising helical ultrastructures with varying degrees of lateral association. Furthermore, the fibrils are composed of one or more filaments, resulting in overall diameters ranging from approximately 6 to 12 nm. No oligomers are observed for the long-acting compounds at day 8 or at day 30 (Figures 2 and S2).
as §1
A 5-μl aliquot of peptide sample was diluted into 50 μl of water to a peptide concentration of approximately 50 μM, spotted on a glow-discharged, carbon-coated Formvar grid (Electron Microscopy Sciences), incubated for 5 min, washed with distilled water, and then stained with 1% (w/v) aqueous uranyl formate solution. Uranyl formate solutions were filtered through 0.2-μm sterile syringe filters (Corning) before use. EM analysis was performed using a JEOL JEM-100CXII electron microscope at 80 kV with nominal magnifications between 36,000 and 72,000. Images were recorded digitally by using the SIS Megaview III imaging system. At least two independent experiments were carried out for each sample.

[3] = Peptide release from amyloid (dialysis experiment); conditions: 3.5-kDa MWCO, room temperature, 35 d
Procedure: Although amyloid fibrils are very stable, they must follow thermodynamic equilibrium conditions between fibril and monomer. […] A total of 200 μl of 30-d-old GnRH analog (in) was dialyzed 4 ml of 5% D-mannitol (out). A 3.5-kDa cutoff, which is twice the size of the peptides studied, was chosen to ensure that the released particles are most likely monomeric. The peptide release and the remaining aggregates were monitored by fluorescence over 35 d at room temperature.
A 200-μl aliquot of aged GnRH in solution conditions given above was transferred into a 0.6-ml Eppendorf tube with a hole in the cap. To study the effect of heparin on peptide release, a mixture of hormone analog and heparin (1:1 v/v) was incubated overnight in parallel with a half-diluted peptide fibril sample in 5% D-mannitol and 0.01% sodium azide. The hole in the cap of the Eppendorf tube was sealed with a 3.5-kDa molecular weight cutoff (MWCO) membrane. Next, the Eppendorf tube was inserted upside down into a 15-ml Falcon tube containing 4 ml of 5% D-mannitol in water and 0.01% sodium azide. Care was taken to make sure that the membrane was exposed to solutions both in and outside and that any bubbles at the membrane interface were removed. The tubes were then incubated at room temperature. To measure the remaining peptide concentration inside the 0.6-ml Eppendorf tube, a 5-μl aliquot was diluted into 500 μl water with 5% D-mannitol, 0.01% sodium azide, and the fluorescence was measured with excitation at 280 nm and emission in the range of 290–500 nm. The excitation slit width was 2 nm, and emission slit width was 11 nm. To determine the peptide concentration outside the membrane in the 15-ml tube, an aliquot of 250 μl of solution was taken from the releasing medium, diluted into 500 μl final volume by 5% D-mannitol, 0.01% sodium azide, and fluorescence was measured. Following spectra recording, the dialysis system was reassembled as described above. […] The normalized intensity maxima from inside and outside the membrane were plotted as a function of time and fit by an exponential function to extract the half-life of the fibrils and the K off, respectively. […] The extracted half-life, t 1/2, is the time taken, during which the fluorescence signal inside the 0.6-ml Eppendorf tube drops by 50%.

Thio T Binding ([1]; room temperature without stirring, monitored daily over 21 d, fluorescence ex 450 nm / em 482 nm, three independent experiments): b
EM^8 ([2]; electron microscopy at day 8 of incubation): fib
EM^30 ([2]; electron microscopy at day 30 of incubation): fib
KD ([3]; dissociation constant of the aggregates = final monomer concentration, 200 μl of 30-d-old analog dialyzed against 4 ml 5% D-mannitol, fluorescence ex 280 nm): 8 µM
t1/2 ([3]; half-life of fibrils: time in which fluorescence inside drops by 50%, dialysis of 30-d-old analog, 5% D-mannitol, exponential fit, 2 d = intrinsic diffusion of monomer): 35 days
Substance: Ac-DNal-DCpa-Agl(Nic)-Ser-Aph(Ac)-DAph(Ac)-Leu-ILys-Pro-DAla-NH2 [L20]
Thio T binding (in words) ([1]; room temperature, 21 d): bind significantly more Thio T during the entire experiment
